Results: patent publication US20240150334A1, “HSD17B13 INHIBITORS AND/OR DEGRADERS” (Pfizer Inc., priority 2022, published 2024)
Counter-ions that a name gives are not always drawn.

Target: wild type human HSD17B13 (Homo sapiens (Human), UniProt Q7Z5P4)
Assay: HEK_Beta-Est LCMS_IC50_Tekcel, whole-cell HEK-HSD17B13 inhibition assay, estrone production by LCMS
Type: cell-based
Settings: geometric mean, HEK cells stably expressing wild type human HSD17B13, 25 μM FAC beta-estradiol, read-out: HEK_Beta-Est LCMS_IC50—Tekcel GMean IC50
Description: HEK_Beta-Est LCMS_IC50_Tekcel
Inhibition potency of test compounds was determined using a whole-cell HEK-HSD17B13 inhibition assay, utilizing a LCMS readout.
HSD17B13 uses the oxidized form of nicotinamide adenine dinucleotide (NAD+) as a cofactor during metabolism of beta-estradiol (substrate), converting NAD+ to the reduced form (NADH) and beta-estradiol to its product (estrone). Estrone production is quantified by LCMS, and used as a measure of HSD17B13 enzyme activity.
([…]: 5% CO2). […] Growth media was then removed from the cell plates and replaced with 10 μL of 2×FAC test compound, and incubated for 1 hour (with lid) at 37° C. […] The reaction was incubated for 2 hours (with lid) at 37° C. […] Amount of product (estrone) was then quantified by LCMS. Data expressed as product area ratio (PAR) were then normalized to control wells using Activity Base (IDBS). Zero percent effect (ZPE) was defined as PAR generated from uninhibited HSD17B13 (vehicle control).

Sequence of wild type human HSD17B13 (Q7Z5P4 20-300): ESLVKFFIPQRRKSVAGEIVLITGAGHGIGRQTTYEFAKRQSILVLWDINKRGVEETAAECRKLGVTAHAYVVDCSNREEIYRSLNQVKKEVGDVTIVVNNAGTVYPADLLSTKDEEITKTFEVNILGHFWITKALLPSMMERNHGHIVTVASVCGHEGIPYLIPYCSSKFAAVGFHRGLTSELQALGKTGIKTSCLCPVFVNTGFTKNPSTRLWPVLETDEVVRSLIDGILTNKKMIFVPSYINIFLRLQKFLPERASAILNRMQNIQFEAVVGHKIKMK

Structure (SMILES) | IC50 [nM]
O=C(NC[C@]12CC[C@](c3nc(-c4ncc(C(F)(F)F)cn4)no3)(CC1)CC2)c1cc(F)c(O)c(F)c1 [Example 203, 3,5-difluoro-4-hydroxy-N-[(4-{3-[5-(trifluoromethyl)pyrimidin-2-yl]-1,2,4-oxadiazol-5-yl}bicyclo[2.2.2]octan-1-yl)methyl]benzamide] | 98
COc1ccnc(-c2ccc3cn([C@H]4CC[C@H](CNC(=O)c5cc(F)c(O)c(F)c5)CC4)nc3c2)n1 [Example 95, 3,5-difluoro-4-hydroxy-N-({(1r,4r)-4-[6-(4-methoxypyrimidin-2-yl)-2H-indazol-2-yl]cyclohexyl}methyl)benzamide] | 240
O=C(NC[C@H]1CC[C@H](n2cc3ccc(-c4ncns4)cc3n2)CC1)c1cc(F)c(O)c(F)c1 [Example 82, 3,5-difluoro-4-hydroxy-N-({(1r,4r)-4-[6-(1,2,4-thiadiazol-5-yl)-2H-indazol-2-yl]cyclohexyl}methyl) benzamide] | 120
O=C(NC[C@H]1CC[C@H](n2cc3cnc(-c4cccnc4)cc3n2)CC1)c1cc(F)c(O)c(F)c1 [Example 189, 3,5-difluoro-4-hydroxy-N-({(1r,4r)-4-[6-(pyridin-3-yl)-2H-pyrazolo[4,3-c]pyridin-2-yl]cyclohexyl}methyl) benzamide] | 430
COc1ccc(-c2ccc3cn([C@H]4CC[C@H](CNC(=O)c5cc(F)c(O)c(F)c5)CC4)nc3c2)nc1 [Example 99, 3,5-difluoro-4-hydroxy-N-({(1r,4r)-4-[6-(5-methoxy-pyridin-2-yl)-2H-indazol-2-yl]cyclohexyl}methyl) benzamide, trifluoroacetate salt] | 220
Cc1cccc(-c2noc([C@]34CC[C@](CNC(=O)c5cc(F)c(O)c(F)c5)(CC3)CC4)n2)n1 [Example 194, 3,5-difluoro-4-hydroxy-N-({4-[3-(6-methylpyridin-2-yl)-1,2,4-oxadiazol-5-yl]bicyclo[2.2.2]octan-1-yl}methyl) benzamide] | 230
O=C(NC[C@H]1CC[C@H](n2cc3cc(-c4cscn4)ccc3n2)CC1)c1cc(F)c(O)c(F)c1 [Example 155, 3,5-difluoro-4-hydroxy-N-({(1r,4r)-4-[5-(1,3-thiazol-4-yl)-2H-indazol-2-yl]cyclohexyl}methyl) benzamide] | 120
O=C(NC[C@H]1CC[C@H](n2cc3ccc(-c4cnn(CC(F)F)c4)cc3n2)CC1)c1cc(F)c(O)c(F)c1 [Example 10, N-{[(1r,4r)-4-{6-[1-(2,2-Difluoroethyl)-1H-pyrazol-4-yl]-2H-indazol-2-yl}cyclohexyl]methyl}-3,5-difluoro-4-hydroxybenzamide, trifluoroacetate salt] | 120
O=C(NC[C@H]1CC[C@H](n2cc3ccc(-c4ncc5c(n4)COC5)cc3n2)CC1)c1cc(F)c(O)c(F)c1 [Example 101, N-({(1r,4r)-4-[6-(5,7-dihydrofuro[3,4-d]pyrimidin-2-yl)-2H-indazol-2-yl]cyclohexyl}methyl)-3,5-difluoro-4-hydroxybenzamide] | 140
O=C(NC[C@H]1CC[C@H](n2cc3ccc(-c4cnn(C(CO)CCl)c4)cc3n2)CC1)c1cc(F)c(O)c(F)c1 (stereo partly shown) [Example 164, N-{[(1r,4r)-4-{6-[1-(1-chloro-3-hydroxypropan-2-yl)-1H-pyrazol-4-yl]-2H-indazol-2-yl}cyclohexyl]methyl}-3,5-difluoro-4-hydroxybenzamide, trifluoroacetate salt] | 230
O=C(NC[C@H]1CC[C@H](n2cc3ccc(-n4cc(C(F)(F)F)cn4)cc3n2)CC1)c1cc(F)c(O)c(F)c1F [Example 11, 2,3,5-Trifluoro-4-hydroxy-N-{[(1r,4r)-4-{6-[4-(trifluoromethyl)-1H-pyrazol-1-yl]-2H-indazol-2-yl}cyclohexyl]methyl}benzamide, trifluoroacetate salt] | 240
COc1ncc(-c2cc3cn([C@H]4CC[C@H](CNC(=O)c5cc(F)c(O)c(F)c5)CC4)nc3cn2)cn1 [Example 201, 3,5-difluoro-4-hydroxy-N-({(1r,4r)-4-[5-(2-methoxypyrimidin-5-yl)-2H-pyrazolo[3,4-c]pyridin-2-yl]cyclohexyl}methyl) benzamide, trifluoroacetate salt] | 350
Cc1ccn(-c2ccc3cn([C@H]4CC[C@H](CNC(=O)c5cc(F)c(O)c(F)c5F)CC4)nc3c2)n1 [Example 162, 2,3,5-trifluoro-4-hydroxy-N-({(1r,4r)-4-[6-(3-methyl-1H-pyrazol-1-yl)-2H-indazol-2-yl]cyclohexyl}methyl) benzamide] | 310
Cn1cc(-c2ccc3cn([C@]45CC[C@](CNC(=O)c6cc(F)c(O)c(F)c6)(CC4)CC5)nc3c2)cn1 [Example 204, 3,5-difluoro-4-hydroxy-N-({4-[6-(1-methyl-1H-pyrazol-4-yl)-2H-indazol-2-yl]bicyclo[2.2.2]octan-1-yl}methyl)benzamide] | 99
O=C(NC[C@H]1CC[C@H](n2cc3ccc(-c4cn5ccccc5n4)cc3n2)CC1)c1cc(F)c(O)c(F)c1 [Example 103, 3,5-difluoro-4-hydroxy-N-({(1r,4r)-4-[6-(imidazo[1,2-a]pyridin-2-yl)-2H-indazol-2-yl]cyclohexyl}methyl) benzamide, trifluoroacetate salt] | 360
O=C(NC[C@]12CC[C@@](c3nc(-c4ncc(C(F)(F)F)cn4)no3)(CC1)CC2)c1cc(F)c(O)c(F)c1F [Example 3, 2,3,5-Trifluoro-4-hydroxy-N-[(4-{3-[5-(trifluoromethyl)pyrimidin-2-yl]-1,2,4-oxadiazol-5-yl}bicyclo[2.2.2]octan-1-yl)methyl]benzamide] | 130
O=C(NC[C@H]1CC[C@H](n2cc3ccc(-c4cncs4)cc3n2)CC1)c1cc(F)c(O)c(F)c1 [Example 96, 3,5-difluoro-4-hydroxy-N-({(1r,4r)-[6-(1,3-thiazol-5-yl)-2H-indazol-2-yl]cyclohexyl}methyl)benzamide] | 85
O=C(NC[C@H]1CC[C@H](n2cc3ccc(-n4cncn4)cc3n2)CC1)c1cc(F)c(O)c(F)c1F [Example 165, 2,3,5-trifluoro-4-hydroxy-N-({(1r,4r)-4-[6-(1H-1,2,4-triazol-1-yl)-2H-indazol-2-yl]cyclohexyl}methyl) benzamide] | 420

Now from value to compound:

IC50 [nM] | Structure (SMILES)
130 | Cn1ncc(-c2ccc3cn([C@H]4CC[C@H](CNC(=O)c5cc(F)c(O)c(F)c5)CC4)nc3c2)n1 [Example 92, 3,5-difluoro-4-hydroxy-N-({(1r,4r)-4-[6-(2-methyl-2H-1,2,3-triazol-4-yl)-2H-indazol-2-yl]cyclohexyl}methyl)benzamide]
220 | O=C(NC[C@]12CC[C@](n3cc4ccc(Br)cc4n3)(CC1)CC2)c1cc(F)c(O)c(F)c1 [Example 205, N-{[4-(6-bromo-2H-indazol-2-yl)bicyclo[2.2.2]octan-1-yl]methyl}-3,5-difluoro-4-hydroxybenzamide]
370 | O=C(NC[C@H]1CC[C@H](n2cc3ccc(-c4ncc(C5CC5)s4)cc3n2)CC1)c1cc(F)c(O)c(F)c1 [Example 105, N-({(1r,4r)-4-[6-(5-cyclopropyl-1,3-thiazol-2-yl)-2H-indazol-2-yl]cyclohexyl}methyl)-3,5-difluoro-4-hydroxybenzamide]
170 | Cc1ncc(-c2ccc3cn([C@H]4CC[C@H](CNC(=O)c5cc(F)c(O)c(F)c5)CC4)nc3c2)s1 [Example 88, 3,5-difluoro-4-hydroxy-N-({(1r,4r)-4-[6-(2-methyl-1,3-thiazol-5-yl)-2H-indazol-2-yl]cyclohexyl}methyl)benzamide]
150 | O=C(NC[C@]12CC[C@](n3cc4ccc(-c5cncnc5)cc4n3)(CC1)CC2)c1cc(F)c(O)c(F)c1 [Example 206, 3,5-difluoro-4-hydroxy-N-({4-[6-(pyrimidin-5-yl)-2H-indazol-2-yl]bicyclo [2.2.2]octan-1-yl}methyl)benzamide]
190 | O=C(NC[C@H]1CC[C@H](n2cc3ccc(-n4cccn4)cc3n2)CC1)c1cc(F)c(O)c(F)c1F [Example 158, 2,3,5-trifluoro-4-hydroxy-N-({(1r,4r)-4-[6-(1H-pyrazol-1-yl)-2H-indazol-2-yl]cyclohexyl}methyl) benzamide, trifluoroacetate salt]
180 | O=C(NC[C@]12CC[C@@](n3cc4ccc(-c5ncccn5)cc4n3)(CC1)CC2)c1cc(F)c(O)c(F)c1F [Example 7, 2,3,5-Trifluoro-4-hydroxy-N-({4-[6-(pyrimidin-2-yl)-2H-indazol-2-yl]bicyclo[2.2.2]octan-1-yl}methyl)benzamide]
180 | O=C(NC[C@H]1CC[C@H](n2cc3ccc(-c4ccn5ccnc5c4)cc3n2)CC1)c1cc(F)c(O)c(F)c1 [Example 117, 3,5-difluoro-4-hydroxy-N-({(1r,4r)-4-[6-(imidazo[1,2-a]pyridin-7-yl)-2H-indazol-2-yl]cyclohexyl}methyl) benzamide, trifluoroacetate salt]
180 | O=C(NC[C@H]1CC[C@H](n2cc3cc(-c4cnn(C(F)F)c4)ccc3n2)CC1)c1cc(F)c(O)c(F)c1F [Example 161, N-{[(1r,4r)-4-{5-[1-(difluoromethyl)-1H-pyrazol-4-yl]-2H-indazol-2-yl}cyclo-hexyl]methyl}-2,3,5-trifluoro-4-hydroxy-benzamide]
140 | O=C(NC[C@]12CC[C@](n3cc4ccc(-c5ncccn5)cc4n3)(CC1)CC2)c1cc(F)c(O)c(F)c1 [Example 207, 3,5-difluoro-4-hydroxy-N-({4-[6-(pyrimidin-2-yl)-2H-indazol-2-yl]bicyclo [2.2.2]octan-1-yl}methyl)benzamide]
